What was measured:
[1] = Reverse pH gradient drug encapsulation efficiency in liposomes; format: physicochemical; settings: for drug encapsulation: reverse pH gradient technology, FIG. 10
Procedure: The dried lipid film was hydrated with a buffer containing either ammonium phosphate, ammonium sulfate, sodium phosphate, or sodium sulfate (300 mM, pH 7.4) and vortexed for 1 minute to remove any adhering lipid film. Sonication in a bath sonicator (ULTRAsonik 28X) for 1 minute at room temperature produced multilamellar vesicles (MLV). MLVs were then sonicated with a Ti-probe (Branson 450 sonifier) for 2 minutes to produce small unilamellar vesicles (SUV), indicated by the formation of a translucent solution. Extrusion through a 100 nm pore size polycarbonate filter (Whatman) was the final stage of a stepwise series of extrusions to reduce SUV size.
The prepared liposomes with internal buffer at pH 3 or 7.4 were passed through a Sephadex G-50 column equilibrated with HEPES buffered saline (HBS; 20 mM HEPES, 150 mM NaCl, pH 7.4) to exchange the external buffer. […] The solution was heated at 50° C. for 20 minutes, left to stand 4 hours at room temperature, and then applied to a Sephadex G-50 column and eluted with MilliQ water.

[2] = Acute toxicity of free staurosporine at high dose; format: in vivo; settings: 5 mg/Kg
Source text: Future, more comprehensive studies will use even lower doses of staurosporine alone, and in combination with other agents.

[3] = test system: U87 cells; assay: In vivo anti-tumor activity, very large U87 flank tumors (180-200 mm^3); settings: treatment over two weeks
[4] = 0.8 mg/Kg injected as free drug, 'would very likely be' (Gurley et al.); cited from earlier work

Row | drug encapsulation [1] | Compound | acute toxicity [2] | liposomal loading capacity, peak value ([1]; drug to lipid ratio 0.09 (mole/mole)) [%] | increase of encapsulation when a gradient existed ([1]; internal buffer pH 7.4 versus pH 3, external buffer pH 3) [fold] | encapsulation rate ([1]; internal pH 5, external pH 7.4) | body weight [3] | tumor growth ([3]; relative to PBS (p<0.004)) | fraction cleared after one circulatory pass [4] [%]
1 | good efficacy | COc1cc2ncnc(Nc3ccc(F)c(Cl)c3)c2cc1OCCCN1CCOCC1 [Gefitinib, N-(3-chloro-4-fluoro-phenyl)-7-methoxy-6-(3-morpholin-4-ylpropoxy)quinazolin-4-amine] | – | – | – | – | – | – | –
2 | good efficacy | O=c1cc(N2CCOCC2)oc2c(-c3ccccc3)cccc12 [LY29004] | – | – | – | – | – | – | –
3 | – | CN[C@@H]1C[C@H]2O[C@@](C)([C@@H]1OC)n1c3ccccc3c3c4c(c5c6ccccc6n2c5c31)C(=O)NC4 [staurosporine, (9S,10R,11R,13R)-2,3,10,11,12,13-Hexahydro-10-methoxy-9-methyl-11-(methylamino)-9,13-epoxy-1H,9H-diindolo[1,2,3-gh:3′,2′,1′-1m]pyrrolo[3,4-j][1,7]benzodiazonin-1-one] | acutely lethal | 70 | 14 | very low | body weight did decline | no demonstrable effect | 99

Source: patent US20140356416A1, “LIPOSOMAL DRUG ENCAPSULATION” (priority 2011, published 2014)
